Laboratory results from ChEMBL document CHEMBL1124361, “Tetrapeptide inhibitors of the IgA1 proteinases from type I Neisseria gonorrhoeae” (J Med Chem, 1989).
Peptide text beside a SMILES is read from it.

molecular target: IgA-specific serine endopeptidase autotransporter (Neisseria gonorrhoeae, UniProt P09790); test: Inhibitory concentration against type 1 IgA1 proteinases secreted by Neisseria gonorrhoeae
Sequence (P09790 whole entry): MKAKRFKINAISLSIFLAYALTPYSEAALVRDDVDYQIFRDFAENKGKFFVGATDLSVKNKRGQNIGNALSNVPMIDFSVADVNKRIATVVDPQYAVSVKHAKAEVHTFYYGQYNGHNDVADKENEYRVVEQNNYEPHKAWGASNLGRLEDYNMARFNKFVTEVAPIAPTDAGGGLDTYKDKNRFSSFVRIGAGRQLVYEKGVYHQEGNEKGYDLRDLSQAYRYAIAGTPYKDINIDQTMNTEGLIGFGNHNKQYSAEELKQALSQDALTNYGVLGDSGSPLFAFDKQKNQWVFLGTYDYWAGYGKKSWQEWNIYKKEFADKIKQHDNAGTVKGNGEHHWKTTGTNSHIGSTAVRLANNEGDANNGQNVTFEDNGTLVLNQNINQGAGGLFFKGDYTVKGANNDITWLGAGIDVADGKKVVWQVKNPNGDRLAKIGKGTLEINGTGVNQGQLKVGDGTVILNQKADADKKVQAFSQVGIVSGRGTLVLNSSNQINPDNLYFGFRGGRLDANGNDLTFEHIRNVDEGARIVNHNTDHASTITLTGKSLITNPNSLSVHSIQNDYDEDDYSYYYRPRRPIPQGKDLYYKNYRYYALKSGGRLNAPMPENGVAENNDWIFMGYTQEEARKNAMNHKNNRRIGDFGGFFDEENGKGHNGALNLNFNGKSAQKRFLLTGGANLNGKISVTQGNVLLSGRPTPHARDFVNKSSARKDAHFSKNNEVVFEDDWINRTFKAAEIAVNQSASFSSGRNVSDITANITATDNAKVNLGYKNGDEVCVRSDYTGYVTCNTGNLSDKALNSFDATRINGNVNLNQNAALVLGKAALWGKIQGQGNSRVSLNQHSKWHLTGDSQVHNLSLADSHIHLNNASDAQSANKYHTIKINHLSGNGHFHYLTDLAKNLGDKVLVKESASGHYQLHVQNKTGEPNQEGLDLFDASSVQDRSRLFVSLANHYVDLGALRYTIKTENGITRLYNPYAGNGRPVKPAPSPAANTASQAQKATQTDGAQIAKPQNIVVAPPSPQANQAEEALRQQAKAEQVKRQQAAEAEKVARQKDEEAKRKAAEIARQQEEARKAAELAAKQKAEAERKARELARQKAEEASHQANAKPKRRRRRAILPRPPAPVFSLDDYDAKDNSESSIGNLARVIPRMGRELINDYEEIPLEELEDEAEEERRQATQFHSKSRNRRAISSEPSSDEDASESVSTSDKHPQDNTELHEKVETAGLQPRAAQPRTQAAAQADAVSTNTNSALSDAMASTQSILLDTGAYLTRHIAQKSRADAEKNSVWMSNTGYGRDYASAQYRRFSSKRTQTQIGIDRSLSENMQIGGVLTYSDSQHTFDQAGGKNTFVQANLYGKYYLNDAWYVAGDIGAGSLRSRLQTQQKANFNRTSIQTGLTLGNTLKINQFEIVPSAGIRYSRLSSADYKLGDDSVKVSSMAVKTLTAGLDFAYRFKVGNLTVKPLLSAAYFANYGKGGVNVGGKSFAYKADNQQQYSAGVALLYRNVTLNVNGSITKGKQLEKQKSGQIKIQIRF

Compared with C[C@@H](O)[C@H](NC(=O)[C@@H]1CCCN1)C(=O)N1CCC[C@H]1C(=O)N[C@@H](CO)C(=O)O (H-PTPS-OH), C[C@@H](O)[C@H](NC(=O)[C@@H]1CCCN1)C(=O)N1CCC[C@H]1C(=O)N[C@@H](CO)C(N)=O (H-PTPS-NH2) is lower in IC50: > 1000 µM for the first, 5.3 µM for the second. The second is the more potent here.

First: CC(=O)N1CCC[C@H]1C(=O)N[C@@H](CO)C(=O)N1CCC[C@H]1C(=O)N[C@@H](CO)C(N)=O [ACETYLPROLYLSERYLPROLYLSERINAMIDE(ACPSPSNH2)] (Ac-PSPS-NH2)
Second: CC(=O)N1CCC[C@H]1C(=O)N[C@@H](CO)C(=O)N1CCC[C@H]1C(=O)N[C@@H](CO)C(=O)O (Ac-PSPS-OH)
The IC50 of the first is higher: > 1000 µM for the first, 675 µM for the second. The second is the more potent here.

First: C[C@@H](O)[C@H](N)C(=O)N1CCC[C@H]1C(=O)N1CCC[C@H]1C(=O)N[C@H](C(N)=O)[C@@H](C)O (H-TPPT-NH2)
Second: C[C@@H](O)[C@H](N)C(=O)N1CCC[C@H]1C(=O)N1CCC[C@H]1C(=O)N[C@H](C(=O)O)[C@@H](C)O (H-TPPT-OH)
The IC50 of the first is lower: 419 µM for the first, > 1000 µM for the second. The first is the more potent here.

CC(=O)N1CCC[C@H]1C(=O)N1CCC[C@H]1C(=O)N[C@H](C(=O)N1CCC[C@H]1C(N)=O)[C@@H](C)O [ACETYLPROLYLPROLYLTHREONYLPROLINAMIDE(ACPPTPNH2)] (Ac-PPTP-NH2) and CC(=O)N1CCC[C@H]1C(=O)N1CCC[C@H]1C(=O)N[C@H](C(=O)N1CCC[C@H]1C(=O)O)[C@@H](C)O (Ac-PPTP-OH) cannot be ordered by IC50: > 1000 µM for the first, > 1000 µM for the second.

NC(=O)[C@H](CO)NC(=O)[C@@H]1CCCN1C(=O)[C@H](CO)NC(=O)[C@@H]1CCCN1 (H-PSPS-NH2) and O=C(O)[C@H](CO)NC(=O)[C@@H]1CCCN1C(=O)[C@H](CO)NC(=O)[C@@H]1CCCN1 (H-PSPS-OH) cannot be ordered by IC50: > 1000 µM for the first, > 1000 µM for the second.

First: CC(=O)N1CCC[C@H]1C(=O)N[C@H](C(=O)N1CCC[C@H]1C(=O)N[C@@H](CO)C(N)=O)[C@@H](C)O [ACETYLPROLYLTHREONYLPROLYLSERINAMIDE(ACPTPSNH2)] (Ac-PTPS-NH2)
Second: CC(=O)N1CCC[C@H]1C(=O)N[C@H](C(=O)N1CCC[C@H]1C(=O)N[C@@H](CO)C(=O)O)[C@@H](C)O (Ac-PTPS-OH)
The IC50 of the first is higher: > 1000 µM for the first, 23.8 µM for the second.

Going from C[C@@H](O)[C@H](NC(=O)[C@@H]1CCCN1C(=O)[C@@H]1CCCN1)C(=O)N1CCC[C@H]1C(N)=O [PROLYLPROLYLTHREONYLPROLINAMIDE(PPTPNH2)] (H-PPTP-NH2) to C[C@@H](O)[C@H](NC(=O)[C@@H]1CCCN1C(=O)[C@@H]1CCCN1)C(=O)N1CCC[C@H]1C(=O)O (H-PPTP-OH), the IC50 falls from > 1000 µM to 40.5 µM. The second is the more potent here.

Going from C[C@@H](O)[C@H](NC(=O)[C@@H](N)CO)C(=O)N1CCC[C@H]1C(=O)N1CCC[C@H]1C(N)=O (H-STPP-NH2) to C[C@@H](O)[C@H](NC(=O)[C@@H](N)CO)C(=O)N1CCC[C@H]1C(=O)N1CCC[C@H]1C(=O)O (H-STPP-OH), the IC50 falls from > 1000 µM to 73 µM. The second is the more potent here.

Going from CC(=O)N[C@@H](CO)C(=O)N[C@H](C(=O)N1CCC[C@H]1C(=O)N1CCC[C@H]1C(N)=O)[C@@H](C)O (Ac-STPP-NH2) to CC(=O)N[C@@H](CO)C(=O)N[C@H](C(=O)N1CCC[C@H]1C(=O)N1CCC[C@H]1C(=O)O)[C@@H](C)O (Ac-STPP-OH), the IC50 falls from > 1000 µM to 9.7 µM. The second is the more potent here.

First: CC(=O)N[C@H](C(=O)N1CCC[C@H]1C(=O)N[C@@H](CO)C(=O)N1CCC[C@H]1C(N)=O)[C@@H](C)O [ACETYLTHREONYLPROLYLSERYLPROLINAMIDE(ACTPSPNH2)] (Ac-TPSP-NH2)
Second: CC(=O)N[C@H](C(=O)N1CCC[C@H]1C(=O)N[C@@H](CO)C(=O)N1CCC[C@H]1C(=O)O)[C@@H](C)O (Ac-TPSP-OH)
The IC50 of the first is higher: > 1000 µM for the first, 183 µM for the second. The second is the more potent here.

First: C[C@@H](O)[C@H](N)C(=O)N1CCC[C@H]1C(=O)N[C@@H](CO)C(=O)N1CCC[C@H]1C(=O)O (H-TPSP-OH)
Second: C[C@@H](O)[C@H](N)C(=O)N1CCC[C@H]1C(=O)N[C@@H](CO)C(=O)N1CCC[C@H]1C(N)=O [THREONYLPROLYLSERYLPROLINAMIDE(TPSPNH2)] (H-TPSP-NH2)
The IC50 of the first is lower: 33.1 µM for the first, > 1000 µM for the second. The first is the more potent here.

CC(=O)N[C@H](C(=O)N1CCC[C@H]1C(=O)N1CCC[C@H]1C(=O)N[C@H](C(=O)O)[C@@H](C)O)[C@@H](C)O (Ac-TPPT-OH) and CC(=O)N[C@H](C(=O)N1CCC[C@H]1C(=O)N1CCC[C@H]1C(=O)N[C@H](C(N)=O)[C@@H](C)O)[C@@H](C)O (Ac-TPPT-NH2) cannot be ordered by IC50: > 1000 µM for the first, > 1000 µM for the second.
